Values joined by “and” are separate entries in the source; they are usually repeats but may differ in a detail not shown here. Equal values may be shown once. Read-outs that look alike come from different tables or passages of the source.
Test: Pharmacokinetics after subcutaneous (SC) administration of angiotensin (1-7) in PBS, plasma LC-MS
Type: in vivo, female Sprague-Dawley rats
Settings: for AUC(0-t): read-out: AUC0-90 (converted)
Description: Initially, a baseline pharmacokinetic profile in female Sprague-Dawley rats was obtained by subcutaneous (SC) administration of angiotensin (1-7) in phosphate buffered saline (PBS). […]
After extraction, the samples were then transferred to ice-cold tubes containing a protease inhibitor cocktail. The samples were kept on ice until they were centrifuged at 4° C. to obtain plasma. The plasma supernatants were then frozen −70° C. until analysis using an LC-MS assay.
Table 1 summarized exemplary individual baseline A(1-7) levels achieved at the designated time points and the non-compartmental PK values. Three rats were administered 0.3 mL of 10 mg/mL A(1-7) as a subcutaneous injection. The pharmacokinetics of A(1-7) were determined using a non-compartmental model, where individual pharmacokinetics were determined. The mean concentration for each time point was calculated and the PK values for these mean values were estimated. The Tmax was achieved approximately 10 to 90 minutes after administration. Half-lives are approximately 15 minutes for this treatment group. Total mean A(1-7) exposure over the observation period was 614 ng*min/mL with a range of 585 to 656 ng*min/mL.

[1] = SC 0.3 mL of 10 mg/mL A(1-7) in PBS, individual rats

- Total mean A(1-7) exposure over the observation period (0.3 mL of 10 mg/mL A(1-7) subcutaneous injection, three rats): 614 ng·min/mL
- AUC0-90 [1]: 598.1 ng·min/mL and 656.1 ng·min/mL
- Cmax [1]: 15.7 ng/mL and 17.4 ng/mL
- Half-Life [1]: 15.58 min
- Angiotensin (1-7) concentration (SC 0.3 mL of 10 mg/mL A(1-7) in PBS, time point 10 min, individual rats): 18.6 ng/mL and 0.94 ng/mL and 1.09 ng/mL
- Angiotensin (1-7) concentration (SC 0.3 mL of 10 mg/mL A(1-7) in PBS, time point 20 min, individual rats): 6.25 ng/mL and 15.7 ng/mL and 5.71 ng/mL
- Angiotensin (1-7) concentration (SC 0.3 mL of 10 mg/mL A(1-7) in PBS, time point 60 min, individual rats): 1.03 ng/mL and 2.65 ng/mL and 7.46 ng/mL
- Angiotensin (1-7) concentration (SC 0.3 mL of 10 mg/mL A(1-7) in PBS, time point 90 min, individual rats): 1.14 ng/mL and 6.59 ng/mL and 17.4 ng/mL
- level at 0 h (female, Sprague-Dawley, rat, plasma, 3 mg, SC 0.3 mL of 10 mg/mL A(1-7) in PBS, time point 0 min (before injection), Average, read-out: Angiotensin (1-7) concentration): 4.5 ng/mL
- level at 5 min (female, Sprague-Dawley, rat, plasma, 3 mg, SC 0.3 mL of 10 mg/mL A(1-7) in PBS, time point 5 min, Average, read-out: Angiotensin (1-7) concentration): 3.99 ng/mL
- level at 10 min (female, Sprague-Dawley, rat, plasma, 3 mg, SC 0.3 mL of 10 mg/mL A(1-7) in PBS, time point 10 min, Average, read-out: Angiotensin (1-7) concentration): 6.88 ng/mL
- level at 20 min (female, Sprague-Dawley, rat, plasma, 3 mg, SC 0.3 mL of 10 mg/mL A(1-7) in PBS, time point 20 min, Average, read-out: Angiotensin (1-7) concentration): 9.22 ng/mL
- level at 40 min (female, Sprague-Dawley, rat, plasma, 3 mg, SC 0.3 mL of 10 mg/mL A(1-7) in PBS, time point 40 min, Average, read-out: Angiotensin (1-7) concentration): 8.72 ng/mL
- level at 1 h (female, Sprague-Dawley, rat, plasma, 3 mg, SC 0.3 mL of 10 mg/mL A(1-7) in PBS, time point 60 min, Average, read-out: Angiotensin (1-7) concentration): 3.71 ng/mL
- level at 1.5 h (female, Sprague-Dawley, rat, plasma, 3 mg, SC 0.3 mL of 10 mg/mL A(1-7) in PBS, time point 90 min, Average, read-out: Angiotensin (1-7) concentration): 8.38 ng/mL
- Tmax (female, Sprague-Dawley, rat, plasma, sc, 3 mg, 0.3 mL of 10 mg/mL A(1-7) subcutaneous injection, three rats, range over the group, read-out: Tmax after administration): 10 to 90 min
- Half-Life (female, Sprague-Dawley, rat, plasma, sc, 3 mg, 0.3 mL of 10 mg/mL A(1-7) subcutaneous injection, three rats, read-out: Half-lives): ~15 min
- AUC(0-t) (female, Sprague-Dawley, rat, plasma, sc, 3 mg, SC 0.3 mL of 10 mg/mL A(1-7) in PBS, Average (PK value of the mean concentrations)): 10.2 ng·h/mL
- Cmax (female, Sprague-Dawley, rat, plasma, sc, 3 mg, SC 0.3 mL of 10 mg/mL A(1-7) in PBS, Average (PK value of the mean concentrations), read-out: Cmax): 9.2 ng/mL
- Tmax (female, Sprague-Dawley, rat, plasma, sc, 3 mg, SC 0.3 mL of 10 mg/mL A(1-7) in PBS, Average (PK value of the mean concentrations), read-out: Tmax (converted)): 20 min
- AUC(0-t) (female, Sprague-Dawley, rat, plasma, sc, 3 mg, SC 0.3 mL of 10 mg/mL A(1-7) in PBS, Mean PK Value (average of individual PK parameters)): 10.2 ng·h/mL
- Cmax (female, Sprague-Dawley, rat, plasma, sc, 3 mg, SC 0.3 mL of 10 mg/mL A(1-7) in PBS, Mean PK Value (average of individual PK parameters), read-out: Cmax): 17.2 ng/mL
- Half-Life (female, Sprague-Dawley, rat, plasma, sc, 3 mg, SC 0.3 mL of 10 mg/mL A(1-7) in PBS, Mean PK Value (average of individual PK parameters), read-out: Half-Life): 15.1 min
- Tmax (female, Sprague-Dawley, rat, plasma, sc, 3 mg, SC 0.3 mL of 10 mg/mL A(1-7) in PBS, Mean PK Value (average of individual PK parameters), read-out: Tmax (converted)): 40 min
- AUC(0-t) (female, Sprague-Dawley, rat, plasma, sc, 3 mg, SC 0.3 mL of 10 mg/mL A(1-7) in PBS, individual rats): 9.72 ng·h/mL
- Cmax (female, Sprague-Dawley, rat, plasma, sc, 3 mg, SC 0.3 mL of 10 mg/mL A(1-7) in PBS, individual rats, read-out: Cmax): 18.6 ng/mL
- Half-Life (female, Sprague-Dawley, rat, plasma, sc, 3 mg, SC 0.3 mL of 10 mg/mL A(1-7) in PBS, individual rats, read-out: Half-Life): 15 min
Structure (SMILES): CC[C@H](C)[C@H](NC(=O)[C@H](Cc1ccc(O)cc1)NC(=O)[C@@H](NC(=O)[C@H](CCCNC(=N)N)NC(=O)[C@@H](N)CC(=O)O)C(C)C)C(=O)N[C@@H](Cc1c[nH]cn1)C(=O)N1CCC[C@H]1C(=O)O [Angiotensin (1-7), Asp^1-Arg^2-Val^3-Tyr^4-Ile^5-His^6-Pro^7]
- Angiotensin (1-7) concentration (SC 0.3 mL of 10 mg/mL A(1-7) in PBS, time point 0 min (before injection), individual rats): 0.121 ng/mL and 10.2 ng/mL and 1.41 ng/mL
- Angiotensin (1-7) concentration (SC 0.3 mL of 10 mg/mL A(1-7) in PBS, time point 5 min, individual rats): 0.120 ng/mL and 7.47 ng/mL and 4.37 ng/mL
- Angiotensin (1-7) concentration (SC 0.3 mL of 10 mg/mL A(1-7) in PBS, time point 40 min, individual rats): 15.30 ng/mL and 6.38 ng/mL and 4.47 ng/mL

From US20150246093A1, “ORAL FORMULATIONS OF ANGIOTENSIN” (TARIX PHARMACEUTICALS LTD., priority 2012, published 2015)
